This passage reports Ki and melting point results from US8415380B2 (Hoffmann-La Roche Inc., priority 2007, dated 2013).

The target in one data set is T1, rat mGlu2 receptor (Rattus norvegicus, UniProt P31421).
T1 construct: expressed in transfected cells; membranes prepared
Description: [3H]-LY354740 binding on mGlu2 transfected CHO cell membranes. The settings on record: 10 nM [3H]-LY354740, mGlu2 transfected CHO cell membranes, room temperature, 1 hour. An excerpt:
[^3H]-LY354740 Binding on mGlu2 Transfected CHO Cell Membranes Transfection and Cell Culture
cDNA encoding the rat mGlu2 receptor protein in pBluescript II was subcloned into the eukaryotic expression vector pcDNA I-amp from Invitrogen Ltd (Paisley, UK). This vector construct (pcD1mGR^2) was co-transfected with a psvNeo plasmid encoding the gene for neomycin resistance, into CHO cells by a modified calcium phosphate method described by Chen & Okayama (1988). The cells were maintained in Dulbecco's Modified Eagle medium with reduced L-glutamine (1 mM final concentration), 36 mg/L L-Proline and 10% dialysed foetal calf serum from Gibco-Invitrogen; the medium was supplemented with 500 microM α-methyl-4-carboxyphenylglycine (MCPG). Selection was made in the presence of G-418 (300 ug/ml final concentration). Clones were identified by reverse transcription of 5 μg total RNA, followed by PCR using mGlu2 receptor specific primers 5′-[…]-3′ and 5′-[…]-3′ in 60 mM Tris HCl (pH 10), 15 mM (NH4)2SO4, 2 mM MgCl2, 25 units/ml Taq Polymerase with 30 cycles annealing at 60° C. for 1 min., extention at 72° C. for 30 s, and 1 min. 95° C. denaturation.
Cells, cultured as above, were harvested and washed three times with cold PBS and frozen at −80° C. The pellet was resuspended in cold 20 mM HEPES-NaOH buffer containing 10 mM EDTA (pH 7.4), and homogenised with a polytron (Kinematica, A G, Littau, Switzerland) for 10 s at 10 000 rpm. After centrifugation for 30 min. at 4° C., the pellet was washed once with cold 20 mM HEPES-NaOH buffer containing 0.1 mM EDTA, (pH 7.4). After a second centrifugation for 30 min. at 4° C. the pellet was resuspended in cold 20 mM HEPES-NaOH buffer containing 0.1 mM EDTA, (pH 7.4). Protein content was measured using the Micro BCA method from Pierce-Perbio (Rockford, Ill., USA) using bovine serum albumin as standard.
After thawing, the membranes were resuspended in cold 50 mM Tris-HCl buffer containing 2 mM MgCl2 (pH 7.4) (binding buffer). The final concentration of the membranes in the assays was 25 μg protein/ml. Inhibition experiments were performed with membranes incubated with 10 nM [^3H]-LY354740 at room temperature, for 1 hour, in presence of various concentrations of the compound to be tested. Following the incubations, membranes were filtered onto Whatmann GF/B glass fiber filters or onto GF/B Unifilter plates and washed 5 times with cold binding buffer. Non specific binding was measured in the presence of 10 μM (2S,2′R,3′R)-2-(2′3′-Dicarboxycyclopropyl)glycine (DCG IV from Tocris, Ellisville, Mo. USA). After transfer of the filters into plastic vials containing 10 ml of Ultima-gold scintillation fluid from Perkin-Elmer (Boston, Mass., USA), the radioactivity was measured by liquid scintillation in a Tri-Carb 2500 TR counter (Packard, Zurich, Switzerland). For 96-Unifilter plates the radioactivity was measured after addition of Microscint 40 scintillation fluid (Perkin Elmer, Boston Mass.) using a TopCount NXT (Packard)
The inhibition curves were fitted with a four parameter logistic equation giving IC50 values, and Hill coefficients.

Molecules are shown by their SMILES.

T1 sequence (P31421 19-872): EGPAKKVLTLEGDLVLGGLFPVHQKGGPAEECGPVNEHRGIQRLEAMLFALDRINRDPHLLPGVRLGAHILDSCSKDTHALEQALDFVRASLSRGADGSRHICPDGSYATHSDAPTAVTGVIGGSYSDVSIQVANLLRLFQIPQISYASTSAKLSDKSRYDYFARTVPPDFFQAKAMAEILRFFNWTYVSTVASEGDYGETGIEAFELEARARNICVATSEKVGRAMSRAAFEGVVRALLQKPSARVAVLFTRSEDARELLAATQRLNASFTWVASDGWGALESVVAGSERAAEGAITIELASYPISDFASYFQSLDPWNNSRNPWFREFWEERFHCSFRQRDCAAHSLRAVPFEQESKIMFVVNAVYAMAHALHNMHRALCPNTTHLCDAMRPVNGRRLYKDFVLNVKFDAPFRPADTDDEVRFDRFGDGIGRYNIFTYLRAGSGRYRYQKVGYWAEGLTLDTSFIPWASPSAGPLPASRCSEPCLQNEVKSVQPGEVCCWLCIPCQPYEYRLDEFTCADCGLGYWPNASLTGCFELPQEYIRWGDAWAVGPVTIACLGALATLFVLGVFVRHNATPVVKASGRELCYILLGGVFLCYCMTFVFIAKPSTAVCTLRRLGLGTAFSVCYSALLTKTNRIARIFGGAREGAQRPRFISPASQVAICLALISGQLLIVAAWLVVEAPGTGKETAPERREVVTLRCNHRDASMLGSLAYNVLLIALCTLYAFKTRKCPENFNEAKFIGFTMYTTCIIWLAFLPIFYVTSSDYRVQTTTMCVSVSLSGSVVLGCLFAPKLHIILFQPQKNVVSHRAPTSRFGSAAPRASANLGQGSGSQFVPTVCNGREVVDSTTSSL

Regarding `NS(=O)(=O)c1cccc(-c2cc(-c3nc(-c4ccc(C(F)(F)F)nc4)cc(C(F)(F)F)n3)ccn2)c1` [Example 9, 3-{4-[4-Trifluoromethyl-6-(6-trifluoromethyl-pyridin-3-yl)-pyrimidin-2-yl]-pyridin-2-yl}-benzenesulfonamide], the melting point (as a rule, the temperature, or range, at which the solid turns liquid) was determined as 258 °C. In addition, at rat mGlu2 receptor, affinity was put at a Ki of 0.0053 µM.

Consider `NS(=O)(=O)c1ccc(-c2cc(-c3nc(-c4ccc(C(F)(F)F)nc4)cc(C(F)(F)F)n3)ccn2)s1` [Example 10, 5-{4-[4-Trifluoromethyl-6-(6-trifluoromethyl-pyridin-3-yl)-pyrimidin-2-yl]-pyridin-2-yl}-thiophene-2-sulfonic acid amide], for which the melting point came out at 262.5 °C. The Ki (in general, the equilibrium dissociation constant of an inhibitor or competing ligand from its target) at rat mGlu2 receptor was 0.0066 µM.

The compound `Nc1ccc(-c2cccc(-c3nc(-c4ccc(C(F)(F)F)nc4)cc(C(F)(F)F)n3)c2)cn1` [Example 12, 5-{3-[4-Trifluoromethyl-6-(6-trifluoromethyl-pyridin-3-yl)-pyrimidin-2-yl]-phenyl}-pyridin-2-ylamine] yielded a melting point of 244 °C. The same compound came in with a Ki on rat mGlu2 receptor of 0.0033 µM.

`Nc1ccc(-c2cn(-c3nc(-c4ccc(C(F)(F)F)nc4)cc(C(F)(F)F)n3)cn2)cn1` [Example 13, 5-{1-[4-Trifluoromethyl-6-(6-trifluoromethyl-pyridin-3-yl)-pyrimidin-2-yl]-1H-imidazol-4-yl}-pyridin-2-ylamine] gave a melting point of 259 °C. On rat mGlu2 receptor, the Ki is 0.033 µM.

For `NS(=O)(=O)c1ccc(-c2cc(-c3nc(-c4ccc(C(F)(F)F)nc4)cc(C(F)F)n3)ccn2)s1` [Example 17, 5-{4-[4-Difluoromethyl-6-(6-trifluoromethyl-pyridin-3-yl)-pyrimidin-2-yl]-pyridin-2-yl}-thiophene-2-sulfonic acid amide], the melting point stood at 269.5 °C. Affinity on rat mGlu2 receptor was put at a Ki of 0.0035 µM.

Compound `NS(=O)(=O)c1cccc(-c2cn(-c3nc(-c4ccc(C(F)(F)F)nc4)cc(C(F)F)n3)cn2)c1` [Example 19, 3-{1-[4-Difluoromethyl-6-(6-trifluoromethyl-pyridin-3-yl)-pyrimidin-2-yl]-1H-imidazol-4-yl}-benzenesulfonamide] yielded a melting point of 219.5 °C. This compound also yielded a Ki at rat mGlu2 receptor of 0.015 µM.

For the compound `Cc1cc(-c2ccc(C(F)(F)F)nc2)nc(-n2cnc(-c3ccc(N)nc3)c2)n1` [Example 20, 5-{1-[4-Methyl-6-(6-trifluoromethyl-pyridin-3-yl)-pyrimidin-2-yl]-1H-imidazol-4-yl}-pyridin-2-ylamine], the melting point came out at 220 °C. This compound came in with a Ki at rat mGlu2 receptor of 0.062 µM.

`Cc1cc(-c2ccc(C(F)(F)F)nc2)cc(-c2cccc(-c3cccc(S(=O)(=O)NC(C)(C)C)c3)n2)n1` [Example 29, N-tert-Butyl-3-(6′-methyl-6″-trifluoromethyl-[2,2′;4′,3″]terpyridin-6-yl)-benzenesulfonamide]: the melting point lay within 187 to 188 °C. Besides, the Ki at rat mGlu2 receptor was determined as 0.026 µM.

The compound `Cc1cc(-c2ccc(C(F)(F)F)nc2)cc(-c2cccc(-c3cccc(S(N)(=O)=O)c3)n2)n1` [Example 30, 3-(6′-Methyl-6″-trifluoromethyl-[2,2′;4′,3″]terpyridin-6-yl)-benzenesulfonamide] came in with a melting point of 233 to 234 °C. Moreover, the Ki on rat mGlu2 receptor is 0.002 µM.

With `Cc1cc(-c2ccc(C(F)(F)F)nc2)cc(-c2cccc(-c3ccc(N)nc3)c2)n1` [Example 33, 5-[3-(6′-Methyl-6-trifluoromethyl-[3,4′]bipyridinyl-2′-yl)-phenyl]-pyridin-2-ylamine], the melting point is 124 to 125 °C. This compound had a Ki at rat mGlu2 receptor of 0.042 µM.
